Columns and labels:
Hep3B cells = assay: Inhibition of growth of liver cancer cell line Hep3B (CellTiter-Glo); type: cell-based; conditions: Homo sapiens, CellTiter-Glo luminescence
Procedure: (§1) The inhibition activity for liver cancer cell lines was measured for 4-((2-acrylamido-6-methylphenyl)amino)-N-(3,5-dimethoxyphenyl)thieno[3,2-d]pyrimidine-7-carboxamide (Compound 1) and 4-((2-acrylamido-6-methylphenyl)amino)-N-(2-methyl-5-(3-(trifluoromethyl)benzamido)phenyl)thieno[3,2-d]pyrimidine-7-carboxamide (Compound 2) synthesized in the present invention.
(§2) Hep3B or HUH7 cells were seeded onto a 96-well plate with 5,000 cells per well and then cultured overnight in F-12K Nutrient Mixture (Life Technologies Corporation) containing 10% FBS at 37° C. in the presence of 5% CO2. The test compound dissolved in dimethyl sulfoxide was diluted to a final concentration of 1-50 μM and then added to the 96-well plate. After culturing at 37° C. in the presence of 5% CO2 and adding a cell count reagent (CellTiter-Glo® Luminescent Cell Viability Assay), luminescence intensity was measured using a luminescence measuring apparatus (Envision).

HUH7 cells = assay: Inhibition of growth of liver cancer cell line HUH7 (CellTiter-Glo); type: cell-based; conditions: Homo sapiens, Huh-7, CellTiter-Glo luminescence
Procedure: as §1, §2

| GI50 (Hep3B cells) | GI50 (HUH7 cells) | Compound |
| --- | --- | --- |
| < 1 µM | < 1 µM | C=CC(=O)Nc1cccc(C)c1Nc1ncnc2c(C(=O)Nc3cc(NC(=O)c4cccc(C(F)(F)F)c4)ccc3C)csc12 [Compound 2, 4-((2-acrylamido-6-methylphenyl)amino)-N-(2-methyl-5-(3-(trifluoromethyl)benzamido)phenyl)thieno[3,2-d]pyrimidine-7-carboxamide] |
| < 10 µM | < 10 µM | C=CC(=O)Nc1cccc(C)c1Nc1ncnc2c(C(=O)Nc3cc(OC)cc(OC)c3)csc12 [Compound 1, 4-((2-acrylamido-6-methylphenyl)amino)-N-(3,5-dimethoxyphenyl)thieno[3,2-d]pyrimidine-7-carboxamide] |

Reference: patent publication US10040803B2, “4-((2-acrylamidophenyl)amino)thieno[3,2-D]pyrimidine-7-carboxamide derivatives as protein kinase inhibitors” (KOREA INSTITUTE OF SCIENCE AND TECHNOLOGY, priority 2016, dated 2018)
